In patent US20210181109A1 (FUJIFILM Corporation, priority 2018, published 2021):
Structures can show the parent of a compound that is named as a salt. Where two headings read alike, the source gives them in different places.

What was measured:
[1] = NAC depletion percent, HPLC-fluorescence detection
Procedure, shortened: (§1)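 NAC at 5 μmol/L in pH 8.0 phosphate buffer reacted with test substance (1 mmol/L stock in water, acetonitrile, acetone or 5% DMSO/acetonitrile) 24 h at 25 °C in the dark, n=3. Stopped with TFA (0.5% final); unreacted NAC quantified by HPLC, depletion percent calculated against blank without test substance.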

[2] = NAL depletion percent, HPLC-fluorescence detection
Procedure, shortened: (§2)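 NAL (5 μmol/L, pH 10.2 phosphate buffer) reacted with test substance (1 mmol/L stock in water, acetonitrile, acetone or 5% DMSO/acetonitrile) for 24 h at 25 °C in the dark; stopped with TFA to 0.5%. Unreacted NAL quantified by HPLC (UV or fluorescence), n=3; depletion % relative to substance-free blank.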

[3] = Average score of NAC and NAL depletion and prediction of skin allergenicity, fluorescence method; conditions: for Average score: test substance solution 1 mmol/L
Procedure, shortened: (§3)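 Score is the mean of NAC and NAL depletion percentages, rounded at the second decimal place. Test substances classed as allergenic (S) or non-allergenic (NS) from depletion of NAC, NAL, or their average score.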

[4] = NAC depletion percent, HPLC-UV detection (281 nm); conditions: Reference (UV method)
Procedure, shortened: as §1

[5] = NAL depletion percent, HPLC-UV detection (281 nm); conditions: Reference (UV method)
Procedure, shortened: as §2

[6] = Average score of NAC and NAL depletion and prediction of skin allergenicity, UV method; conditions: for Average score: test substance solution 1 mmol/L
Procedure, shortened: as §3

[7] = cited from earlier work
[8] = single substance, test substance solution 1 mmol/L, fluorescence method
[9] = single substance, fluorescence method, criterion average score […]
[10] = single substance, fluorescence method
[11] = single substance, test substance solution 1 mmol/L
[12] = single substance, Reference (UV method), criterion average score […]
[13] = single substance, Reference (UV method)
[14] = known values, LLNA-test-based classification, − for non-allergenic substances
[15] = Fluorescence method, non-allergenic substance

| Compound | NAC depletion (%) [1, 8] | NAL depletion (%) [2, 8] | Prediction result [3, 9] | Average score [3, 10] | NAC depletion (%) [4, 11] | NAL depletion (%) [5, 11] | Prediction result [6, 12] | Average score [6, 13] | EC3 (%) [7, 14] | NAC depletion (%) [1, 15] | NAL depletion (%) [2, 15] | Prediction result [3] | NAC depletion (%) ([4]; non-allergenic substance) | NAL depletion (%) ([5]; non-allergenic substance) | Prediction result [6] | EC3 (%) ([7]; in vivo) | Prediction result ([3]; Fluorescence method, skin allergenicity prediction) | Prediction result ([6]; Reference (UV method), skin allergenicity prediction) |
| --- | --- | --- | --- | --- | --- | --- | --- | --- | --- | --- | --- | --- | --- | --- | --- | --- | --- | --- |
| Cn1sc(Cl)cc1=O [5-Chloro-methyl-4-isothiazolin-3-one] | 100.0% | 9.3% | S (S represents as being an allergenic substance) | 54.7% | 100.0% | 17.7% | S (S represents as being an allergenic substance) | 58.8% | 0.009% |  |  |  |  |  |  |  |  |  |
| NC1=CC(=Nc2ccc(N)cc2)C(N)=CC1=Nc1ccc(N)cc1 [Bandrowski's base] | 100.0% | 1.7% | S (S represents as being an allergenic substance) | 50.8% | 100.0% | 5.7% | S (S represents as being an allergenic substance) | 52.9% | 0.008% |  |  |  |  |  |  |  |  |  |
| c1ccc(COOCc2ccccc2)cc1 [Benzyl peroxide] | 100.0% | 63.7% | S (S represents as being an allergenic substance) | 81.9% | 100.0% | 50.6% | S (S represents as being an allergenic substance) | 75.3% | 0.004% |  |  |  |  |  |  |  |  |  |
| ClC(Cl)c1ccccc1 [Benzylidene dichloride] |  |  |  |  |  |  |  |  |  | 2.1% | 1.4% | NS (key: S represents as being an allergenic substance; NS represents as being a non-allergenic substance) | 0.9% | −0.3% | NS (key: S represents as being an allergenic substance; NS represents as being a non-allergenic substance) | − |  |  |
| CC(=O)C=Cc1ccccc1 [Benzylideneacetone] | 67.3% | 10.0% | S (S represents as being an allergenic substance) | 38.6% | 44.9% | 7.2% | S (S represents as being an allergenic substance) | 26.1% | 3.7% |  |  |  |  |  |  |  |  |  |
| CCN(CCNS(C)(=O)=O)c1ccc(N)c(C)c1.CCN(CCNS(C)(=O)=O)c1ccc(N)c(C)c1.O=S(=O)(O)O.O=S(=O)(O)O.O=S(=O)(O)O [CD3] | 100.0% | 8.1% | S (S represents as being an allergenic substance) | 54.0% | 76.6% | 16.5% | S (S represents as being an allergenic substance) | 46.6% | 0.6% |  |  |  |  |  |  |  |  |  |
| Clc1ccccc1 [Chlorobenzene] |  |  |  |  |  |  |  |  |  | 1.3% | 0.1% | NS (key: S represents as being an allergenic substance; NS represents as being a non-allergenic substance) | 0.0% | 0.7% | NS (key: S represents as being an allergenic substance; NS represents as being a non-allergenic substance) | − |  |  |
| O=CC=Cc1ccccc1 [Cinnamaldehyde] | 54.1% | 12.8% |  | 33.4% | 37.0% | 13.1% |  | 25.0% |  |  |  |  |  |  |  | 3% |  |  |
| CC(C=O)Cc1ccc(C(C)C)cc1 (stereo not shown) [Cyclamen aldehyde] | 12.2% | 0.0% | S (S represents as being an allergenic substance) | 6.1% | 3.1% | 1.7% | NS (NS represents as being a non-allergenic substance) | 2.4% | 22% |  |  |  |  |  |  |  |  |  |
| CCOC(=O)/C=C\C(=O)OCC [Diethyl maleate] | 31.2% | 4.7% | S (S represents as being an allergenic substance) | 18.0% | 31.8% | 7.7% | S (S represents as being an allergenic substance) | 19.8% | 5.8% |  |  |  |  |  |  |  |  |  |
| O=c1c(-c2ccccc2)c1-c1ccccc1 [Diphenylcyclopropenone] | 29.7% | 2.4% | S (S represents as being an allergenic substance) | 16.0% | 28.7% | 6.3% | S (S represents as being an allergenic substance) | 17.5% | 0.0003% |  |  |  |  |  |  |  |  |  |
| C=CC(=O)OCC [Ethyl acrylate] | 88.7% | 10.6% | S (S represents as being an allergenic substance) | 49.6% | 87.8% | 13.7% | S (S represents as being an allergenic substance) | 50.8% |  |  |  |  |  |  |  | 28% |  |  |
| C=C(C)C(=O)OCCOC(=O)C(=C)C [Ethylene glycol dimethacrylate] | 7.3% | 1.5% | NS (NS represents as being a non-allergenic substance) | 4.4% | 5.9% | 2.6% | NS (NS represents as being a non-allergenic substance) | 4.3% | 28% |  |  |  |  |  |  |  |  |  |
| O=CCCCC=O [Glutaraldehyde] | 0.0% | 47.4% | S (S represents as being an allergenic substance) | 23.7% | 0.8% | 53.1% | S (S represents as being an allergenic substance) | 26.9% | 0.1% |  |  |  |  |  |  |  |  |  |
| O=CC=O [Glyoxal] | 24.9% | 0.4% |  | 12.7% | 12.8% | 0.8% |  | 6.8% |  |  |  | S (key: S represents as being an allergenic substance; NS represents as being a non-allergenic substance) |  |  | S (key: S represents as being an allergenic substance; NS represents as being a non-allergenic substance) | 1.4% |  |  |
| CC(CC=O)CCCC(C)(C)O (stereo not shown) [Hydroxycitronellal] | 16.0% | 0.0% | S (S represents as being an allergenic substance) | 8.0% | 17.5% | 1.5% | S (S represents as being an allergenic substance) | 9.5% | 33% |  |  |  |  |  |  |  |  |  |
| CCCCCCCCCCCCOC(=O)c1cc(O)c(O)c(O)c1 [Lauryl gallate] | 99.5% | 15.9% | S (S represents as being an allergenic substance) | 57.7% | 100.0% | 19.0% | S (S represents as being an allergenic substance) | 59.5% | 0.3% |  |  |  |  |  |  |  |  |  |
| CCCCCCC#CC(=O)OC [Methyl 2-nonynoate] | 12.4% | 3.2% | S (S represents as being an allergenic substance) | 7.8% | 15.0% | 1.4% | S (S represents as being an allergenic substance) | 8.2% | 2.5% |  |  |  |  |  |  |  |  |  |
| CNc1ccc(O)cc1.CNc1ccc(O)cc1.O=S(=O)(O)O [Metol] | 100.0% | 15.9% | S (S represents as being an allergenic substance) | 57.9% | 100.0% | 22.8% | S (S represents as being an allergenic substance) | 61.4% | 0.8% |  |  |  |  |  |  |  |  |  |
| CCCCCCCCC(=O)O [Nonanoic acid] |  |  |  |  |  |  |  |  | 21% | 0.0% | 0.0% |  | 0.0% | 1.3% |  |  | NS (NS represents as being a non-allergenic substance) | NS (NS represents as being a non-allergenic substance) |
